Results as given in patent US20150307841A1, “Composition for Promoting Differentiation and Proliferation of Neural Stem Cell and Neural Precursor Cell” (priority 2014, published 2015).

System: GAD67-, VGluT1-, ChAT-positive neurons and OX42 reactive microglia in the hippocampus
Test: Immunohistochemical analysis of GAD67, VGluT1, ChAT, OX42 in hippocampus (Experimental Example 1)
Type: in vivo, rat
Method: Immunostaining was carried out using antibodies against VGluT1 (diluted 1:500, Chemicon), ChAT (1:500, Chemicon), GFAP (1:1,000, Chemicon), tyrosine hydroxylase (TH, 1:500, Chemicon) and OX42 (CD11b/c, 1:250, Serotec) as primary antibodies instead of the anti-BrdU antibodies used in (4). The other process was the same as in (4), except that incubation was performed at 37° C. for 30 minutes in 2 N HCl.
In the immunohistochemical analysis, the number of the cells immnunostained against each antibody was counted from 5 or 6 hippocampal coronal sections. For each staining analysis, every fifth cryosections of the hippocampal region of brain tissues (AP: bregma −4.5 to −4.3 mm) were taken for immunostaining. The number of the immnunostained cells was represented as an average of number of cells in the hippocampal region of one brain slice.
The number of the VGluT1- and GAD-positive cells in the brain slice samples 1 week and 4 weeks after the administration of soyasaponin I was presented per microscopic field (×400-VGluT1, ×800-GAD67) and the number of the ChAT-positive cells was presented per each hippocampal region (10-12 confocal laser microscopic fields). 5-11 animals were used per group. Western blotted membranes were analyzed using the multi-gauge, bio-imaging program on LAS-4000 Mini (Fujifilm Life Science, Stamford, Conn., USA). Densitometeric analysis of the expression ratios of VGluT1/β-actin, GAD65/67/β-actin and ChAT/β-actin was normalized to the vehicle group.

[1] = ibotenic acid injected into entorhinal cortex, no soyasaponin I
[2] = memory-deficient model rats, soyasaponin I at 5, 10, 20 mg/kg oral

SMILES: N[C@H](C(=O)O)c1cc(=O)[nH]o1 [IBO, Ibotenic acid]
- ChAT-positive cells in the hippocampus relative to Sham [1]: 52.07 ± 7.38%
- GAD67-positive cells in the hippocampus relative to Sham [1]: 43.02 ± 3.72%
- VGluT1-positive cells in the hippocampus relative to Sham [1]: 72.44 ± 3.86%
- Number of ChAT-positive cells in the hippocampus [2]: 7.30±1.32 cells
- Number of GAD67-positive cells [2]: 3.81±0.63 cells per hippocampal slice
